This assay deals with human UPP1 (hUPP1) (Homo sapiens, UniProt Q16831). The experiment in a line: absorbance change at […] nm, uridine to uracil. The format is biochemical. The settings on record: uridine and inorganic phosphate; reference for hUPP2 activity.

This is an account of results in publication PMC3190963 (Journal of structural biology, 2011).

human UPP1 (hUPP1), sequence (Q16831 whole entry): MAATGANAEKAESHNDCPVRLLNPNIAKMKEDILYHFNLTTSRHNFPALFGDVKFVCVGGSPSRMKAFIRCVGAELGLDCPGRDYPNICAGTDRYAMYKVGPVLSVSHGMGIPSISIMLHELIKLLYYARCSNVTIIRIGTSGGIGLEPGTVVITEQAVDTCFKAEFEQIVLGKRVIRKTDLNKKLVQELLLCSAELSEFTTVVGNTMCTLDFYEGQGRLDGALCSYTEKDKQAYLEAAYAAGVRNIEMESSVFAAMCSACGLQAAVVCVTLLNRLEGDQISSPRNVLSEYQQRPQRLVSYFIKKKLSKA

As for `O=c1ccn([C@@H]2O[C@H](CO)[C@@H](O)[C@H]2O)c(=O)[nH]1` [uridine], the “absorbance change at 280 nm, uridine to uracil” value is “in vitro activity of recombinant hUPP2 and hUPP1 was compared”.
